Earlier results, collected in paper PMC9747611 (Hypertension Research, 2022).

Tested on: aldosterone synthase
Settings: cited from earlier work

## N#Cc1ccc([C@H]2CCc3cncn32)c(F)c1 [LCI699]
  increase in 11-deoxycorticosterone levels: up to 10 fold
